Assay results taken from patent US4698352A, “4-oxo-1,4-dihydronicotinic acid derivatives, salts thereof, and antibacterial agents containing the same” (Toyama Chemical Co., Ltd., priority 1982, dated 1987).
In brackets after ≈: the same amount, converted by molar mass. Read-outs that look alike come from different tables or passages of the source.

What was measured:
Test in all cases: Antibacterial activity (MIC), agar dilution
Assay type in all cases: cell-based
E. coli GN5482** = conditions: Escherichia coli, 20 h; E. coli GN5482, cephalospolinase-producing; 10^6 cells per ml; read-out: MIC
From the text: (§1) The amount of bacteria inoculated was 10^4 cells per plate (10^6 cells per ml).
(§2) ** Cephalospolinase-producing bacteria

Ps. aeruginosa GN918** = conditions: Ps. aeruginosa GN918, cephalospolinase-producing, 10^6 cells per ml
From the text: as §1, §2

Pro. vulgaris GN76** = conditions: Proteus vulgaris, 20 h; Pro. vulgaris GN76, cephalospolinase-producing; 10^6 cells per ml; read-out: MIC
From the text: as §1, §2

Aci. antitratus A-6 = conditions: 20 h, Aci. antitratus A-6; 10^6 cells per ml; 37° C., 20 hours; read-out: MIC
From the text: as §1

Pro. vulgaris GN3027 = conditions: Proteus vulgaris, GN3027, 20 h, Pro. vulgaris GN3027; 10^6 cells per ml; 37° C., 20 hours; read-out: MIC
From the text: as §1

E. coli NIHJ JC-2 = conditions: Escherichia coli, NIHJJC2, 20 h
From the text: as §1

Ent. cloacae IID977 = conditions: Enterobacter cloacae, IID977, 20 h, Ent. cloacae IID977; 10^6 cells per ml; 37° C., 20 hours; read-out: MIC
From the text: as §1

Ps. aeruginosa S-68 = conditions: Pseudomonas aeruginosa
From the text: as §1

E. coli TK-111 = conditions: Escherichia coli, TK111, 20 h, E. coli TK-111; 10^6 cells per ml; 37° C., 20 hours; read-out: MIC
From the text: as §1

St. aureus FDA209P = conditions: Staphylococcus aureus, FDA209P, 20 h, St. aureus FDA209P; 10^6 cells per ml; 37° C., 20 hours; read-out: MIC
From the text: as §1

Kl. pneumoniae Y-50 = conditions: Klebsiella pneumoniae, Y50, 20 h, 10^6 cells per ml, 37° C., read-out: MIC
From the text: as §1

Pro. mirabilis T-111 = conditions: Proteus mirabilis, 37° C.
From the text: as §1

Pro. morganii T-216 = conditions: Morganella morganii, 37° C.
From the text: as §1

Kl. pneumoniae Y-41 = conditions: Klebsiella pneumoniae, Y41, 10^6 cells per ml, 37° C., 20 hours, read-out: MIC
From the text: as §1

Ps. aeruginosa IFO3445 = conditions: Pseudomonas aeruginosa; Ps. aeruginosa IFO3445; 10^6 cells per ml; 37° C., 20 hours; read-out: MIC
From the text: as §1

Kl. pneumoniae Y-4* = conditions: Klebsiella pneumoniae, 20 h, Kl. pneumoniae Y-4, penicillinase-producing; 10^6 cells per ml; read-out: MIC
From the text: as §1
(§3) * Penicillinase-producing bacteria

E. coli TK-3* = conditions: Escherichia coli, 20 h, E. coli TK-3, penicillinase-producing; 10^6 cells per ml; read-out: MIC
From the text: as §1, §3

St. aureus F-137* = conditions: Staphylococcus aureus, 20 h, St. aureus F-137, penicillinase-producing; 10^6 cells per ml; read-out: MIC
From the text: as §1, §3

Ps. aeruginosa GN3379* = conditions: Pseudomonas aeruginosa, 20 h; Ps. aeruginosa GN3379, penicillinase-producing; 10^6 cells per ml; read-out: MIC
From the text: as §1, §3

[1] = Pseudomonas aeruginosa, 20 h, read-out: MIC
[2] = E. coli NIHJ JC-2, 10^6 cells per ml, 37° C., 20 hours, read-out: MIC
[3] = S68, Ps. aeruginosa S-68, 10^6 cells per ml, 37° C., 20 hours, read-out: MIC

For Cc1cc(O)ccc1-n1cc(C(=O)O)c(=O)cc1C1CC=CCC1 (centres unmarked), the MIC (E. coli GN5482**) was 0.1 µg/mL (≈ 0.307 µM), the MIC (Ps. aeruginosa GN918**; [1]) was 0.78 µg/mL (≈ 2.4 µM) and the MIC (Pro. vulgaris GN76**) was 0.39 µg/mL (≈ 1.2 µM). The MIC (Aci. antitratus A-6) was 0.2 µg/mL (≈ 0.615 µM), the MIC (Pro. vulgaris GN3027) was no more than 0.05 µg/mL and the MIC (E. coli NIHJ JC-2; [2]) was 0.39 µg/mL (≈ 1.2 µM). For the same compound, the MIC (Ent. cloacae IID977) was 0.78 µg/mL (≈ 2.4 µM), the MIC (Ps. aeruginosa S-68; [3]) was 6.25 µg/mL (≈ 19.2 µM) and the MIC (E. coli TK-111) was 0.1 µg/mL (≈ 0.307 µM). It also gave an MIC (St. aureus FDA209P) of 0.2 µg/mL (≈ 0.615 µM), an MIC (Kl. pneumoniae Y-50) of 0.39 µg/mL (≈ 1.2 µM) and an MIC (Pro. mirabilis T-111; T111, 20 h, 10^6 cells per ml) of 1.56 µg/mL (≈ 4.79 µM). It also gave an MIC (Pro. morganii T-216; T216, 20 h, 10^6 cells per ml) of 1.56 µg/mL (≈ 4.79 µM), an MIC (Kl. pneumoniae Y-41) of 1.56 µg/mL (≈ 4.79 µM) and an MIC (Ps. aeruginosa IFO3445) of 6.25 µg/mL (≈ 19.2 µM). For the same compound, the MIC (Kl. pneumoniae Y-4*) was 1.56 µg/mL (≈ 4.79 µM), the MIC (E. coli TK-3*) was 0.78 µg/mL (≈ 2.4 µM) and the MIC (St. aureus F-137*) was 0.1 µg/mL (≈ 0.307 µM). The MIC (Ps. aeruginosa GN3379*) was 6.25 µg/mL (≈ 19.2 µM).

With O=C(O)c1cn(-c2ccc(O)cc2F)c(C2CC=CCC2)cc1=O (centres unmarked) the MIC (E. coli GN5482**) was 0.39 µg/mL (≈ 1.18 µM), the MIC (Ps. aeruginosa GN918**; [1]) was 1.56 µg/mL (≈ 4.74 µM) and the MIC (Pro. vulgaris GN76**) was 0.78 µg/mL (≈ 2.37 µM). The MIC (Aci. antitratus A-6) was 3.13 µg/mL (≈ 9.5 µM), the MIC (Pro. vulgaris GN3027) was 0.1 µg/mL (≈ 0.304 µM) and the MIC (E. coli NIHJ JC-2; [2]) was 1.56 µg/mL (≈ 4.74 µM). It also gave an MIC (Ent. cloacae IID977) of 3.13 µg/mL (≈ 9.5 µM), an MIC (Ps. aeruginosa S-68; [3]) of 12.5 µg/mL (≈ 38 µM) and an MIC (E. coli TK-111) of 0.39 µg/mL (≈ 1.18 µM). The MIC (St. aureus FDA209P) was 0.39 µg/mL (≈ 1.18 µM), the MIC (Kl. pneumoniae Y-50) was 0.78 µg/mL (≈ 2.37 µM) and the MIC (Pro. mirabilis T-111; T111, 10^6 cells per ml, 20 hours, read-out: MIC) was 12.5 µg/mL (≈ 38 µM). It also gave an MIC (Pro. morganii T-216; T216, 10^6 cells per ml, 20 hours, read-out: MIC) of 3.13 µg/mL (≈ 9.5 µM), an MIC (Kl. pneumoniae Y-41) of 6.25 µg/mL (≈ 19 µM) and an MIC (Ps. aeruginosa IFO3445) of 12.5 µg/mL (≈ 38 µM). The MIC (Kl. pneumoniae Y-4*) was 6.25 µg/mL (≈ 19 µM), the MIC (E. coli TK-3*) was 3.13 µg/mL (≈ 9.5 µM) and the MIC (St. aureus F-137*) was 0.39 µg/mL (≈ 1.18 µM). For the same compound, the MIC (Ps. aeruginosa GN3379*) was 12.5 µg/mL (≈ 38 µM).

With Cc1cc(O)ccc1-n1cc(C(=O)O)c(=O)cc1C1CCCC1 the MIC (E. coli GN5482**) was 0.2 µg/mL (≈ 0.638 µM), the MIC (Ps. aeruginosa GN918**; Pseudomonas aeruginosa, GN918, 20 h) was 3.13 µg/mL (≈ 9.99 µM) and the MIC (Pro. vulgaris GN76**) was 0.78 µg/mL (≈ 2.49 µM). The MIC (Aci. antitratus A-6) was 0.78 µg/mL (≈ 2.49 µM), the MIC (Pro. vulgaris GN3027) was no more than 0.05 µg/mL and the MIC (E. coli NIHJ JC-2; [2]) was 0.78 µg/mL (≈ 2.49 µM). It also gave an MIC (Ent. cloacae IID977) of 1.56 µg/mL (≈ 4.98 µM), an MIC (Ps. aeruginosa S-68; [3]) of 12.5 µg/mL (≈ 39.9 µM) and an MIC (E. coli TK-111) of 0.39 µg/mL (≈ 1.24 µM). It also gave an MIC (St. aureus FDA209P) of 0.78 µg/mL (≈ 2.49 µM), an MIC (Kl. pneumoniae Y-50) of 0.78 µg/mL (≈ 2.49 µM) and an MIC (Pro. mirabilis T-111; T111, 20 h, 10^6 cells per ml) of 3.13 µg/mL (≈ 9.99 µM). The MIC (Pro. morganii T-216; T216, 20 h, 10^6 cells per ml) was 3.13 µg/mL (≈ 9.99 µM), the MIC (Kl. pneumoniae Y-41) was 3.13 µg/mL (≈ 9.99 µM) and the MIC (Ps. aeruginosa IFO3445) was 12.5 µg/mL (≈ 39.9 µM). For the same compound, the MIC (Kl. pneumoniae Y-4*) was 6.25 µg/mL (≈ 19.9 µM), the MIC (E. coli TK-3*) was 1.56 µg/mL (≈ 4.98 µM) and the MIC (St. aureus F-137*) was 0.39 µg/mL (≈ 1.24 µM). The MIC (Ps. aeruginosa GN3379*) was 25 µg/mL (≈ 79.8 µM).

Compound Cc1cc(O)ccc1-n1cc(C(=O)O)c(=O)cc1C1CCCCC1 [drawing 12] has an MIC (E. coli GN5482**) of 0.1 µg/mL (≈ 0.305 µM), an MIC (Ps. aeruginosa GN918**; [1]) of 3.13 µg/mL (≈ 9.56 µM) and an MIC (Pro. vulgaris GN76**) of 3.13 µg/mL (≈ 9.56 µM). It also gave an MIC (Aci. antitratus A-6) of 0.78 µg/mL (≈ 2.38 µM), an MIC (Pro. vulgaris GN3027) of 0.2 µg/mL (≈ 0.611 µM) and an MIC (E. coli NIHJ JC-2) of 1.56 µg/mL (≈ 4.77 µM). For the same compound, the MIC (Ent. cloacae IID977) was 3.13 µg/mL (≈ 9.56 µM), the MIC (Ps. aeruginosa S-68; [3]) was 50 µg/mL (≈ 153 µM) and the MIC (E. coli TK-111) was 0.78 µg/mL (≈ 2.38 µM). For the same compound, the MIC (St. aureus FDA209P) was 0.78 µg/mL (≈ 2.38 µM), the MIC (Kl. pneumoniae Y-50) was 1.56 µg/mL (≈ 4.77 µM) and the MIC (Pro. mirabilis T-111; T111, 20 h, 10^6 cells per ml) was 12.5 µg/mL (≈ 38.2 µM). It also gave an MIC (Pro. morganii T-216; T216, 20 h, 10^6 cells per ml) of 6.25 µg/mL (≈ 19.1 µM), an MIC (Kl. pneumoniae Y-41) of 6.25 µg/mL (≈ 19.1 µM) and an MIC (Ps. aeruginosa IFO3445) of 50 µg/mL (≈ 153 µM). The MIC (Kl. pneumoniae Y-4*) was 12.5 µg/mL (≈ 38.2 µM), the MIC (E. coli TK-3*) was 3.13 µg/mL (≈ 9.56 µM) and the MIC (St. aureus F-137*) was 0.78 µg/mL (≈ 2.38 µM). The MIC (Ps. aeruginosa GN3379*) was greater than 100 µg/mL.

CC(=O)Oc1ccc(-n2cc(C(=O)OCCN(C)C)c(=O)cc2-c2ccc(N(C)C)cc2)cc1 [drawing 37] gave an MIC (E. coli GN5482**) of no more than 0.05 µg/mL, an MIC (Ps. aeruginosa GN918**) of 3.13 µg/mL (≈ 6.75 µM) and an MIC (Pro. vulgaris GN76**) of 1.56 µg/mL (≈ 3.37 µM). For the same compound, the MIC (Aci. antitratus A-6) was 0.39 µg/mL (≈ 0.841 µM), the MIC (Pro. vulgaris GN3027) was 0.39 µg/mL (≈ 0.841 µM) and the MIC (E. coli NIHJ JC-2; [2]) was 0.39 µg/mL (≈ 0.841 µM). It also gave an MIC (Ent. cloacae IID977) of 1.56 µg/mL (≈ 3.37 µM), an MIC (Ps. aeruginosa S-68; S68, 20 h) of 6.25 µg/mL (≈ 13.5 µM) and an MIC (E. coli TK-111) of 0.2 µg/mL (≈ 0.431 µM). For the same compound, the MIC (St. aureus FDA209P) was 0.39 µg/mL (≈ 0.841 µM), the MIC (Kl. pneumoniae Y-50) was 0.78 µg/mL (≈ 1.68 µM) and the MIC (Pro. mirabilis T-111; T111, 20 h, 10^6 cells per ml) was 6.25 µg/mL (≈ 13.5 µM). For the same compound, the MIC (Pro. morganii T-216; T216, 20 h, 10^6 cells per ml) was 3.13 µg/mL (≈ 6.75 µM), the MIC (Kl. pneumoniae Y-41) was 3.13 µg/mL (≈ 6.75 µM) and the MIC (Ps. aeruginosa IFO3445) was 12.5 µg/mL (≈ 27 µM). The MIC (Kl. pneumoniae Y-4*) was 6.25 µg/mL (≈ 13.5 µM), the MIC (E. coli TK-3*) was 1.56 µg/mL (≈ 3.37 µM) and the MIC (St. aureus F-137*) was 0.39 µg/mL (≈ 0.841 µM). The MIC (Ps. aeruginosa GN3379*) was 12.5 µg/mL (≈ 27 µM).
